Measured values taken from patent EP3057949B1, “SECONDARY ALCOHOL QUINOLINYL MODULATORS OF ROR GAMMA T” (Janssen Pharmaceutica NV, priority 2013, dated 2015).

How the values were obtained:
human RORγt LBD = biological target: T1, human RORγt LBD (Homo sapiens, UniProt P51449); assay: RORγt (LBD) Reporter Assay (GAL4 luciferase, HEK293T cells); format: cell-based; settings: for IC50: compounds for 24 hours
T1 construct: expressed in transfected cells; host or cells: HEK293T
T1 sequence (P51449 258-518): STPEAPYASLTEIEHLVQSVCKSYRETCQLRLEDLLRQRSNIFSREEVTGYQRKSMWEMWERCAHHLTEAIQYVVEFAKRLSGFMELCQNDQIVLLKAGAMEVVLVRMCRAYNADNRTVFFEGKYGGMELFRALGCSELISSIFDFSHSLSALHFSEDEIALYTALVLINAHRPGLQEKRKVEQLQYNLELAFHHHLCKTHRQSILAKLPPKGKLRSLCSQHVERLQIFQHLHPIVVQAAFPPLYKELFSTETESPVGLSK
Procedure, shortened: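 HEK293T cells transiently co-transfected with GAL4 DBD–human RORγt LBD (pBIND, with renilla luciferase control) and GAL4-responsive firefly luciferase reporter, plated in phenol-red free DMEM with 5% lipid-reduced FCS. Compound exposure 24 h; firefly/renilla luminescence ratio plotted against compound concentration.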

[1] = test system: IL-17 production by CD4 T cells; assay: Human Th17 Assay (IL-17 production by CD4 T cells); format: cell-based; settings: IL-17 in supernatant after 3 days, Th17 differentiation conditions
Source text: The human Thl7 assay tests the effect of RORyt modulatory compounds on IL-17 production by CD4 T cells under conditions which favor Th17 differentiation.
Total CD4^+ T cells were isolated from the peripheral blood mononuclear cells (PBMC) of healthy donors using a CD4^+ T cell isolation kit II, following the manufacturer's instructions (Miltenyi Biotec). Cells were resuspended in a medium of RPMI-1640 supplemented with 10% fetal bovine serum, penicillin, streptomycin, […], and β-mercaptoethanol and were added to 96-well plates at 1.5x10^5 per 100 µL per well. 50 µL of compound at titrated concentrations in DMSO were added into each well at final DMSO concentration at 0.2%. Cells were incubated for 1 hour, then 50 µL of Th17 cell differentiation medium was added to each well. The final concentrations of antibodies and cytokines (R&D Systems) in differentiation medium were: 3x10^6/mL anti-CD3/CD28 beads (prepared using human T cell activation/expansion kit, Miltenyi Biotec), 10 µg/mL anti-IL4, 10 µg/mL anti-IFNγ, 10 ng/mL IL1β, 10 ng/mL IL23, 50 ng/mL IL6, 3 ng/mL TGFβ and 20 U/mL IL2. Cells were cultured at 37 °C and 5% CO2 for 3 days. Supernatants were collected and the accumulated IL-17 in culture was measured by using MULTI-SPOT® Cytokine Plate following manufacture's instruction (Meso Scale Discovery). The plate was read using Sector Imager 6000, and IL-17 concentration was extrapolated from the standard curve. The IC50s were determined by GraphPad.

| Compound | inhibition at 6 µM (human RORγt LBD; HEK-293T, 6 µM compound) [%] | IC50 (human RORγt LBD) [nM] | IC50 ([1]; Homo sapiens, CD4+ T, 72 h) [nM] | RORγt (LBD) Reporter Assay, % inhibition @ 6 µM (human RORγt LBD; 6 µM compound, 6 µM) [%] | IC50 [1] [nM] |
| --- | --- | --- | --- | --- | --- |
| COc1nc2ccc(C(O)c3cnc(C)n3C)cc2c(Cl)c1Cc1ccc(C(F)(F)F)cc1 (single isomer, unassigned) [Example 15b, (4-Chloro-2-methoxy-3-(4-(trifluoromethyl)benzyl)quinolin-6-yl)(1,2-dimethyl-1H-imidazol-5-yl)methanol] | 100 | ~1000 | 120 | – | – |
| COc1nc2ccc(C(O)c3cnc(C)n3C)cc2c(Cl)c1Cc1ccc(C(F)(F)F)cc1 (single isomer, unassigned) [Example 15c, (4-Chloro-2-methoxy-3-(4-(trifluoromethyl)benzyl)quinolin-6-yl)(1,2-dimethyl-1H-imidazol-5-yl)methanol] | – | 80 | – | 101 | 130 |
